# Where two headings read alike, the source gives them in different places.
# Assays:
# [1] = target: T1, Keap1 Kelch domain (321-609) / TAMRA-labeled 16mer NRF2 peptide (ETGE motif) (Homo sapiens, UniProt Q14145); assay: NRF2-Keap1 FP Assay (Keap1 Kelch fluorescence polarization); assay type: binding; details: 20 nM Keap1 (321-609), 8 nM Tamra labeled peptide
# T1 construct: the Kelch domain (321-609) of Keap1 is used
# How it was run: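 Compound dilutions (3-fold) were incubated 1 hr at room temperature with 20 nM Keap1 Kelch (321-609) and 8 nM TAMRA-labeled ETGE 16mer peptide. Buffer was 50 mM Tris pH 8.0, 100 mM NaCl, 5 mM MgCl2, 1 mM DTT, 2 mM CHAPS, 0.005% BSA. Fluorescence polarization (mP) was normalized to controls and fitted with a four-parameter equation to give pIC50.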
# [2] = test system: NQO1 specific enzyme activity in BEAS-2B cells (marker for NRF2 activation); assay: BEAS-2B NQO1 MTT Assay; assay type: cell-based; details: Homo sapiens, compound incubated 48 hours, read-out: EC50 (NQO1 specific enzyme activity induction)
# How it was run: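 NQO1 specific activity induction is derived from the rate of MTT reduction (ΔOD/min, 570 nm, 30 min kinetic read) in crude lysates of BEAS-2B cells exposed to compound for 48 h. A 3-parameter fit gives EC50, reported as pEC50; part of each lysate goes to Cell Titer Glo.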
# T1 sequence (Q14145 321-609): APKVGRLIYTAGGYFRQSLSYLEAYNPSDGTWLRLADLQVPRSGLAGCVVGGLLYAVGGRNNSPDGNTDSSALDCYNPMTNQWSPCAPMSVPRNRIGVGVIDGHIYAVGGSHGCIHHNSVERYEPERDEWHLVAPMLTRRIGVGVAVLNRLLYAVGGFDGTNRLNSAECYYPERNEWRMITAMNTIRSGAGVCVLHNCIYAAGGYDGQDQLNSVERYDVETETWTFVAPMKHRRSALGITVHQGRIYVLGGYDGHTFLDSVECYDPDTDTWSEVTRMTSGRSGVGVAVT
Compound,IC50 [1],"EC50 ([2]; BEAS-2B, 48 h)",EC50 [2]
"CCC[C@@H]1CCCCN1C(=O)c1cncc(-c2cccc(-n3ncc(C(=O)O)c3C3CC3c3cn(C)nn3)c2)c1 (stereo partly drawn) [Example 197, 5-(2-(1-Methyl-1H-1,2,3-triazol-4-yl)cyclopropyl)-1-(3-(5-((R)-2-propylpiperidine-1-carbonyl)pyridin-3-yl)phenyl)-1H-pyrazole-4-carboxylic acid]",10 to 100 nM,1000 to 10000 nM,–
"COC1CCCC(COc2cccc(-c3cccc(-n4ncc(C(=O)O)c4[C@H]4C[C@@H]4c4cn(C)nn4)c3)c2)C1 (mixture of isomers) [Example 178, 1-(3′-((3-Methoxycyclohexyl)methoxy)-[1,1′-biphenyl]-3-yl)-5-((1,2-trans)-2-(1-methyl-1H-1,2,3-triazol-4-yl)cyclopropyl)-1H-pyrazole-4-carboxylic acid]",10 to 100 nM,–,100 to 1000 nM
"CCc1nc(-c2cccc(-c3cccc(-n4ncc(C(=O)O)c4C4CC4)c3)c2)no1 [Example 209, 5-Cyclopropyl-1-(3′-(5-ethyl-1,2,4-oxadiazol-3-yl)-[1,1′-biphenyl]-3-yl)-1H-pyrazole-4-carboxylic Acid]",1000 to 10000 nM,–,1000 to 10000 nM
"O=C(O)c1cnn(-c2cccc(-c3cccc(-n4ncc5c4CCCC5)c3)c2)c1C1CC1 [Example 62, 5-cyclopropyl-1-(3′-(4,5,6,7-tetrahydro-1H-indazol-1-yl)-[1,1′-biphenyl]-3-yl)-1H-pyrazole-4-carboxylic Acid]",100 to 1000 nM,100 to 1000 nM,–
"Cn1cc([C@@H]2C[C@H]2c2c(C(=O)O)cnn2-c2cccc(-c3cccc(OC[C@H]4CC[C@H](C(F)(F)F)CC4)c3)c2)nn1 (racemic) [Example 146, 5-((1,2-trans)-2-(1-Methyl-1H-1,2,3-triazol-4-yl)cyclopropyl)-1-(3′-(((1r,4R)-4-(trifluoromethyl)cyclohexyl)methoxy)-[1,1′-biphenyl]-3-yl)-1H-pyrazole-4-carboxylic acid]",10 to 100 nM,–,10 to 100 nM
"CCC[C@@H]1CCCCN1C(=O)c1cccc(-c2cccc(-n3ncc(C(=O)O)c3[C@H]3C[C@@H]3c3cn(CC)nn3)c2)c1 (racemic) [Example 201, 5-((1,2-trans)-2-(1-Ethyl-1H-1,2,3-triazol-4-yl)cyclopropyl)-1-(3′-((R)-2-propylpiperidine-1-carbonyl)-[1,1′-biphenyl]-3-yl)-1H-pyrazole-4-carboxylic acid]",10 to 100 nM,100 to 1000 nM,–
Cn1cc(C2CC2c2c(C(=O)O)cnn2-c2cccc(-c3cccc(OC4CCCCC4)c3)c2)nn1 (stereo not shown) [Example 229],10 to 100 nM,–,10 to 100 nM
"CC(Oc1cccc(-c2cccc(-n3ncc(C(=O)O)c3C3CC3c3cn(C)nn3)c2)c1)C1CCOCC1 (stereo not shown) [Example 227, 5-(2-(1-Methyl-1H-1,2,3-triazol-4-yl)cyclopropyl)-1-(3′-(1-(tetrahydro-2H-pyran-4-yl)ethoxy)-[1,1′-biphenyl]-3-yl)-1H-pyrazole-4-carboxylic Acid]",10 to 100 nM,–,100 to 1000 nM
